Our source for the IC50 and melting point values is patent US20050020593A1, “Aryl-heteroaromatic compounds, compositions comprising them and use” (Aventis Pharma, priority 2003, published 2005).

One series concerns the target T1, Tubulin (Sus scrofa, UniProt P02550+P02554).
T1 construct: Tubulin is purified from pig brains according to published methods; from tissue; host or cells: pig brain
Description: Assessment of the inhibition of tubulin polymerization (turbidimetry at 350 nm). It counts as biochemical. The note with it: tubulin purified from pig brains, 10 μM; concentration inhibiting the rate of polymerization by 50%. How it is done:
Tubulin is purified from pig brains according to published methods (Shelanski et al., 1973, Proc. Natl. Acad. Sci. USA, 70, 765-768, Weingarten et al., 1975, Proc. Natl. Acad. Sci. USA, 72, 1858-1862). Briefly, the brains are ground and centrifuged in an extraction buffer. The tubulin, present in the extract supernatant, is subjected to two successive cycles of polymerization at 37° C. and depolymerization at 4° C., before being separated from the MAPS (microtubule associated proteins) by chromatography on a phosphocellulose P11 column (Whatman). The tubulin thus isolated is more than 95% pure. It is stored in a buffer known as RB/2 30% glycerol, the composition of which is 50 mM MES-NaOH [2-(N-morpholino)ethanesulfonic acid], pH 6.8; 0.25 mM MgCl2; 0.5 mM EGTA; 30% (v/v) glycerol, 0.2 mM GTP (guanosine 5′-triphosphate).
The polymerization of the tubulin into microtubules is monitored by turbidimetry as follows: the tubulin is adjusted to a concentration of 10 μM (1 mg/ml) in the RB/2 30% glycerol buffer, to which are added 1 mM GTP and 6 mM MgCl2. The polymerization is initiated by increasing the temperature from 6° C. to 37° C. in a cuvette with 1 cm optical path length, placed in a Uvikon 931 spectrophotometer (Kontron) equipped with a thermostatically-regulated cuvette holder. The increase in turbidity of the solution is followed at 350 nm.
The products are dissolved at 10 mM in DMSO and added at variable concentrations (0.5 to 10 μM) to the tubulin solution before polymerization. The IC50 value is defined as the concentration of product which inhibits the rate of polymerization by 50%. A product with an IC50 value of less than or equal to […] is considered to be very active.

The test system of another series is HCT116 cells. Description: Inhibition of proliferation of the human colon tumor line HCT116 ([14C]thymidine incorporation). It counts as cell-based. The note with it: HCT-116, 48 hours at 37° C. How it is done:
Assay for Determining the Inhibition of Proliferation of the Human Colon Tumor Line HCT116
The proliferation of HCT116 cells is evaluated by measuring the incorporation of [^14C]thymidine in the following way. The HCT116 cells (from ATCC) are cultured in a DMEM medium (Gibco) which contains 10% foetal calf serum and antibiotics (1% penicillin, 1% streptomycin). To carry out the proliferation assay, the cells are seeded into 96-well Cytostar microplates (Amersham), at a rate of 5000 cells per well. The [^14C]thymidine (0.1 μCi/well) and the products to be evaluated are then added. Variable concentrations of products up to 10 μM are used; the DMSO (solvent used to dissolve the products) should not exceed 0.5% in the medium. 48 hours after incubation at 37° C., the radioactivity incorporated into the cells is measured by counting the plates in a Tri-Lux counter (Wallac). The IC50 value is defined as the concentration of product which reduces the radioactivity by 50% compared with an untreated control. A product with an IC50 value of less than 10 μM is considered to be cytotoxic.
In general terms: Dividing cells build labelled thymidine or BrdU into new DNA.

T1 sequence (P02550 whole entry): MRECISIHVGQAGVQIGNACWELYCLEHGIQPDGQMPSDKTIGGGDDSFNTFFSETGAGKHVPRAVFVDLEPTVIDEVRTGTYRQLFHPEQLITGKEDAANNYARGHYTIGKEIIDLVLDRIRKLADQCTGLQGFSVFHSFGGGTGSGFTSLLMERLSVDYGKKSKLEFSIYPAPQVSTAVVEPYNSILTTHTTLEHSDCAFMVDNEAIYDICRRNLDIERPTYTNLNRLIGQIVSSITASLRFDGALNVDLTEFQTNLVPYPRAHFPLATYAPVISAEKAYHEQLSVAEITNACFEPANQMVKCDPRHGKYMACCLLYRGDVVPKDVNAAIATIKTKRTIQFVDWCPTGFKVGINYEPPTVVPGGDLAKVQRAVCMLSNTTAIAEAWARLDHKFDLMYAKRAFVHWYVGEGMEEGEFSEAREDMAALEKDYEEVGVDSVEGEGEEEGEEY
T1 sequence (P02554 whole entry): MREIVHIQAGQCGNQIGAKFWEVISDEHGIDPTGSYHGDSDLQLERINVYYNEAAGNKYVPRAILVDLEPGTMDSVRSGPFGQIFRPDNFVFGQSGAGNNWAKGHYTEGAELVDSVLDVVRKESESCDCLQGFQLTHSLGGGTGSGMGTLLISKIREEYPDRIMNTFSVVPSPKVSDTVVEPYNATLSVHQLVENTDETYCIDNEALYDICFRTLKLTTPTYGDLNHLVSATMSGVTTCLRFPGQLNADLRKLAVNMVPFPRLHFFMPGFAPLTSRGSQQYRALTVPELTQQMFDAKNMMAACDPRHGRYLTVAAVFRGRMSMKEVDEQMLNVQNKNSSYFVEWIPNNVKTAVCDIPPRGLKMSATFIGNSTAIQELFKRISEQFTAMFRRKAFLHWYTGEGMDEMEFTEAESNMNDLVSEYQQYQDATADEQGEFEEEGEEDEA

As usually defined, the IC50 is the midpoint of a concentration-inhibition curve. High values mean weaker potency in that assay, low ones greater potency in that assay. Regarding `O=C(c1cc2ccccc2n1-c1ccccc1)N1CCN(c2cccc(Cl)c2)CC1` [Example 1, [4-(3-chlorophenyl)piperazin-1-yl](1-phenyl-1H-indol-2-yl)methanone], the IC50 turned out to be 800 nM against Tubulin and 76 nM in the series on HCT116 cells.
With `O=C(c1c2ccccc2nn1-c1ccccc1)N1CCN(c2cccc(Cl)c2)CC1` [Example 2], the IC50 against Tubulin is 800 nM; in the series with HCT116 cells, 6 nM.
Regarding `COc1cc(OC)cc(N2CCN(C(=O)c3c4ccccc4nn3-c3ccccc3)CC2)c1` [Example 3], the IC50 turned out to be 500 nM at Tubulin and 9.8 nM with HCT116 cells.
Consider `O=C(c1c(-c2ccccc2)sc2ccccc12)N1CCN(c2cccc(Cl)c2)CC1` [Example 4, [4-(3-chlorophenyl)piperazin-1-yl](2-phenylbenzo[b]thiophen-3-yl)methanone], for which the figures for the half-maximal inhibitory concentration (IC50) against Tubulin and in the series on HCT116 cells were 1100 nM and 990 nM, respectively.
`NC(=O)c1cccc(N2CCN(C(=O)c3cc4ccccc4n3-c3ccccc3)CC2)c1` [Example 7, [4-(3-carboxamidophenyl)piperazin-1-yl](1-phenyl-1H-indol-2-yl)methanone] showed an IC50 against Tubulin of 900 nM. That is a sub-micromolar value.
Broadly, the melting point is the temperature, or range, at which the solid turns liquid. On to `COc1cc(OC)cc(N2CCN(C(=O)c3cc4ccccc4n3-c3ccccc3)CC2)c1` [Example 8, [4-(3,5-dimethoxyphenyl)piperazin-1-yl](1-phenyl-1H-indol-2-yl)methanone], for which the melting point was found to be 146 °C. At Tubulin, this molecule had an IC50 of 1100 nM.
The like results for `COc1cc(OC)cc(N2CCN(C(=O)c3cc4cc(OC)ccc4n3-c3ccccc3)CC2)c1` [Example 9, [4-(3,5-dimethoxyphenyl)piperazin-1-yl](5-methoxy-1-phenyl-1H-indol-2-yl)methanone] were, in that order, 165 °C and 1200 nM.
`COc1ccc2c(c1)cc(C(=O)N1CCN(c3cccc(Cl)c3)CC1)n2-c1ccccc1` [Example 10, [4-(3-chlorophenyl)piperazin-1-yl](5-methoxy-1-phenyl-1H-indol-2-yl)methanone] returned a melting point of 125 °C. The molecule also displayed an IC50 on Tubulin of 2600 nM.
Regarding `O=C(C1=Nc2ccc(Cl)cc2C1c1ccccc1)N1CCN(c2cccc(Cl)c2)CC1` (stereo not drawn) [Example 11, [4-(3-chlorophenyl)piperazin-1-yl](5-chloro-3-phenyl-1H-indol-2-yl)methanone], the melting point worked out at 188 °C. The molecule also showed an IC50 against Tubulin of 800 nM.
Turning to `COc1cc(OC)cc(N2CCN(C(=O)c3cc4n(c3-c3ccccc3)CSC4)CC2)c1` [Example 14, [4-(3,5-dimethoxyphenyl)piperazin-1-yl](5-phenyl-1H-pyrrolo-[1,2-c]thiazol-6-yl)methanone], the melting point was determined as 98 °C.
